Source: PubChem BioAssay (NCI)
Several values for one entry are separate records, joined by “and”; a condition that tells them apart may be missing. Equal entries are not always repeated.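 Growth conditions: 96-well plates. Treatment: test compound, 48 hours, 5 concentrations. Analysis: linear interpolation between bracketing concentrations; unreached endpoints set to highest concentration. Abbreviation: GI50, concentration required for 50% inhibition of growth. TGI: total growth inhibition.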

What was measured:
Assay in all cases: DTP human tumour cell line panel, 48 h
A549 NSCLC = tested on: A549 NSCLC
HS 578T breast = tested on: HS 578T breast
PC-3 prostate = tested on: PC-3 prostate
RPMI-8226 leukemia = tested on: RPMI-8226 leukemia
SK-MEL-28 melanoma = tested on: SK-MEL-28 melanoma
SNB-19 CNS = tested on: SNB-19 CNS
SNB-75 CNS = tested on: SNB-75 CNS
SR leukemia = tested on: SR leukemia
T-47D breast = tested on: T-47D breast
U251 CNS = tested on: U251 CNS

Structure (SMILES) | GI50 (A549 NSCLC) | GI50 (HS 578T breast) | GI50 (PC-3 prostate) [µM] | GI50 (RPMI-8226 leukemia) | TGI (RPMI-8226 leukemia) | GI50 (SK-MEL-28 melanoma) | GI50 (SNB-19 CNS) | TGI (SNB-19 CNS) | GI50 (SNB-75 CNS) | TGI (SNB-75 CNS) | TGI (SR leukemia) | GI50 (T-47D breast) [µM] | GI50 (U251 CNS) | TGI (U251 CNS) | TGI (A549 NSCLC) [µM] | TGI (HS 578T breast) [µM] | TGI (PC-3 prostate) | TGI (SK-MEL-28 melanoma) | TGI (T-47D breast) | GI50 (SR leukemia)
COC(=O)C[C@](O)(CCCC(C)(C)O)C(=O)O[C@@H]1C(OC)=C[C@]23CCCN2CCc2cc4c(cc2[C@H]13)OCO4 | 0.0953 µM and 0.0238 µM | 0.0333 µM | 0.0288 | 0.0288 µM | 0.419 µM and 0.84 µM | 0.0222 µM | 0.0214 µM | 1.29 µM and 1.39 µM | 0.0235 µM | 0.657 µM and 0.0931 µM | 0.751 µM | 0.0297 | 0.0223 µM | 0.564 µM and 0.0728 µM |  |  |  |  |  | 
C=C1C(=O)OC2CC(C)C(C(CC(C)=O)OC(C)=O)=CCC12 (stereo unspecified) |  |  |  |  | 21.6 µM |  |  | > 74.9 µM |  | 54.2 µM | 15.5 µM |  |  | 29.6 µM | > 76.2 | > 100 | 41.8 µM | 24.1 µM | 42 µM | 
CN(C)CCNC(=O)c1cccc2ccc(-c3ccc(O)cc3)nc12 |  |  |  |  | 8.56 µM | 4.14 µM | 2.41 µM | 15.4 µM and 12 µM |  | 11.7 µM | 15.7 µM |  |  | 10.4 µM | 7.17 | 13.4 | 8.86 µM | 11.8 µM and 16.2 µM | 6.98 µM | 
CC(C)NC(=O)OCc1c(COC(=O)NC(C)C)c(-c2cc[n+](COC(=O)C3CC3)cc2)n2c1CCC2 |  |  |  |  | > 100 µM |  |  | > 100 µM |  | > 100 µM | > 100 µM |  |  | > 100 µM | > 100 | > 100 | > 100 µM | > 100 µM | > 100 µM | 
Cc1cc(Cl)cc(OCCn2cc(F)cn2)c1-c1nc(N)nc2c1CN(C(=O)NCC(C)(F)F)C2 | 0.116 µM |  | 0.0924 |  | > 100 µM | 0.0709 µM | 0.477 µM | > 100 µM |  | > 100 µM | > 100 µM | 0.235 | 0.114 µM | > 100 µM | > 100 | > 100 | > 100 µM | > 100 µM | > 100 µM | 0.0495 µM
Cc1ccc(S(=O)(=O)Nc2ccccc2C=O)cc1 |  |  |  |  | 36 µM |  |  | 75 µM |  | 57.7 µM | 86.3 µM |  |  | 30.2 µM | > 100 | 59.6 | 35.6 µM | 64.7 µM | 72.7 µM | 
C/C=C(\C)C(=O)O[C@H]1C=CC(=O)O[C@H]1CCC(=O)[C@H](C)O | 20.9 µM | 16.2 µM | 15.8 | 8.88 µM | 34 µM | 9.9 µM | 25.7 µM | 83.5 µM | 20.4 µM | 41.4 µM | 13.2 µM | 10.4 | 12.9 µM | 26.4 µM | 46.7 | 39 | 32 µM | 24.6 µM | 32.3 µM | 2.22 µM
COc1cccc(C2CC(C)(O)Oc3cc4c(cc32)OCO4)c1O (stereo unspecified) |  |  |  |  | > 78.2 µM |  |  | > 100 µM |  | 60.2 µM | > 51.7 µM |  |  | 70.4 µM | > 100 | 51.6 | > 100 µM | > 100 µM | > 100 µM | 
CSc1nc(=O)n(CCC#N)nc1SC |  |  |  |  | 98.4 µM |  |  | > 100 µM |  | > 100 µM | > 100 µM |  |  | > 100 µM | > 100 | > 100 | > 100 µM | 47.8 µM | 62.7 µM | 
COc1ccc(OC)c2c1[nH]c(=O)c1c3ccccc3cn21 | 1.02 µM | 2.18 µM | 1.39 | 1.07 µM | 3.21 µM | 1.92 µM | 1.64 µM | 3.4 µM | 1.44 µM | 2.83 µM | 2.36 µM | 1.3 | 1.37 µM | 2.76 µM | 2.37 | 5.06 | 4.21 µM | 3.38 µM | 4.07 µM | 0.189 µM
CCCCC#CC1=C(Br)C(=O)OC1 | 17.2 µM | 3.89 µM | 1.28 | 0.32 µM | 2.72 µM | 3.48 µM | 12.9 µM | 37.1 µM | 15.6 µM | > 100 µM | > 100 µM | 5.79 | 1.59 µM | > 20.1 µM | 43.4 | 23.1 | 9.43 µM | 16.4 µM | > 31.6 µM | 0.36 µM
COc1ccc(C2SC(N)=Nc3c2c(C)nn3C(=O)c2ccncc2)cc1OC (stereo unspecified) |  |  |  |  | > 10 µM |  |  | > 10 µM |  | > 10 µM | > 10 µM |  |  | > 10 µM | > 10 | > 10 | > 10 µM | > 10 µM | > 10 µM | 
CCOC(=O)C(C#N)C1=CC(=O)C(=O)c2ccc(OC)cc21 (stereo unspecified) |  |  |  |  | > 100 µM |  |  | 54.8 µM |  | 58.5 µM | > 100 µM |  |  | 72.5 µM | 41 | 53.4 | 77 µM | 41.4 µM | 34.5 µM | 
C/C=C/C(CC(O)(C(F)(F)F)C(F)(F)F)=N/NC(N)=S |  |  |  |  | > 10 µM |  |  | > 10 µM |  | > 10 µM | > 10 µM |  |  | > 10 µM | > 10 | > 10 | > 10 µM | > 10 µM | > 10 µM | 
COc1cccc2c1C(=O)c1c(O)c3c(c(O)c1C2=O)C[C@@](O)(C(=O)CO)C[C@@H]3OC1CC(N)CC(C)O1 (stereo partly specified) | 0.00992 µM and 0.0107 µM and 0.0315 µM | 0.0504 µM and 0.119 µM | 0.0558 | 0.0178 µM and 0.0704 µM | 0.547 µM and 1.72 µM | 0.135 µM and 0.0938 µM | 0.0391 µM and 0.0413 µM | 2.31 µM and 3.06 µM | 0.00885 µM and 0.047 µM | 0.195 µM and 0.161 µM | 0.492 µM and 0.632 µM | 0.067 | 0.0224 µM and 0.0311 µM | 2.2 µM and 0.873 µM |  |  | 0.33 µM and 0.246 µM | 0.325 µM and 0.477 µM | 1.13 µM and 0.696 µM | 0.00548 µM and 0.02 µM
CC1(C)N=C(N)N=C(N)N1c1ccc(CCCCc2ccc(Cl)cc2S(=O)(=O)F)c(Cl)c1 | 0.388 µM | 4.05 µM | 0.323 | 0.562 µM | 13.2 µM | 0.965 µM | 0.76 µM | 21.3 µM | 1.39 µM | 23 µM | 26.2 µM | 1.87 | 0.291 µM | 15.4 µM | 13.9 | 30.9 | 16.7 µM | 8.46 µM | 7.56 µM | 0.271 µM
O=C(/C=C/c1ccccc1)CCC1C(=O)c2ccccc2C1=O |  |  |  |  | > 100 µM |  |  | > 100 µM |  | > 100 µM | > 100 µM |  |  | > 100 µM | > 100 | > 100 | > 100 µM | > 100 µM | > 100 µM | 
